From patent US8916502B2, “Agent for improving lawn grass qualities” (Cosmo Oil Co., Ltd., priority 2008, dated 2014)

Assays:
Zoysia tenuifolia = assay: Foliage treatment of Zoysia tenuifolia sod in pots: grass height and dry weight of shoots and stems; assay type: in vivo; details: foliage treatment 150 L/10 a; for Grass height: 26 days after treatment; for Dry weight of stems: harvested 4 months after treatment
Protocol: A commercially available Zoysia tenuifolia sod was cut to a size of 10×10 cm. Uniform volcanic ash soil (andosol) was introduced into a vessel (1/44,444×10 a) in a sufficient amount per pot, and a chemical fertilizer (N—P—K=8-8-8) was applied thereon in an amount, in terms of nitrogen, of 2.6 kg-N/10 a. The cut Zoysia tenuifolia sod was transplanted into the pot. […] The grass height was measured 26 days after the treatment, and thereby the dwarfing effect was investigated.

bentgrass = assay: Foliage treatment of bentgrass sod in pots: leaf count and L*a*b* colour; assay type: in vivo; details: 30 days after treatment, 5-aminolevulinic acid hydrochloride 200 mg/10 a and/or prohexadione calcium salt 12.5 g/10 a; for Color system L* / Color system b* / Color system a*: colorimeter; for Color system a*: more negative = greener; for Plant count of lawn grass: foliage treatment 150 L/10 a
Text: A commercially available bentgrass sod was cut into a circular form having a diameter of 10 cm. Uniform volcanic ash soil (andosol) was introduced into a vessel (1/17,500×10 a) in a sufficient amount per pot, and a liquid fertilizer (Hyponica) was applied thereon in an amount, in terms of nitrogen, of 3 kg-N/10 a. The cut bentgrass sod was transplanted into the pot.

[1] = 5-aminolevulinic acid hydrochloride 600 mg/10 a and/or prohexadione calcium salt 20 g/10 a
[2] = 5-aminolevulinic acid hydrochloride 600 mg/10 a and/or trinexapac-ethyl 20 g/10 a
[3] = 5-aminolevulinic acid hydrochloride 600 mg/10 a and/or paclobutrazol 36 g/10 a
[4] = 5-aminolevulinic acid hydrochloride 600 mg/10 a and/or flurprimidol 84 g/10 a

Compound | Dry weight of shoots (Zoysia tenuifolia; [1]) [g] | Grass height (Zoysia tenuifolia; [1]) [cm] | Dry weight of stems (Zoysia tenuifolia; [1]) [g] | Color system L* (bentgrass) | Color system b* (bentgrass) | Color system a* (bentgrass) | Plant count of lawn grass (bentgrass) [plants/9 cm^2] | Dry weight of shoots (Zoysia tenuifolia; [2]) [g] | Grass height (Zoysia tenuifolia; [2]) [cm] | Dry weight of stems (Zoysia tenuifolia; [2]) [g] | Dry weight of shoots (Zoysia tenuifolia; [3]) [g] | Grass height (Zoysia tenuifolia; [3]) [cm] | Dry weight of stems (Zoysia tenuifolia; [3]) [g] | Dry weight of shoots (Zoysia tenuifolia; [4]) [g] | Grass height (Zoysia tenuifolia; [4]) [cm] | Dry weight of stems (Zoysia tenuifolia; [4]) [g]
CCC(=O)C1=C([O-])CC(C(=O)[O-])CC1=O.[Ca+2] (centres unmarked) [Prohexadione calcium salt, calcium 3-oxido-5-oxo-4-propionyl-3-cyclohexene carboxylate] | 0.72 | 3.5 | 11.3 | 33.2 | 17.0 | −8.9 | 65.5 |  |  |  |  |  |  |  |  | 
CCOC(=O)C1CC(=O)C(=C(O)C2CC2)C(=O)C1 (stereo not drawn) [Trinexapac-ethyl, ethyl=4-cyclopropyl-α-hydroxymethylene)-3,5-dioxocyclohexane carboxylate] |  |  |  |  |  |  |  | 0.44 | 3.5 | 12.8 |  |  |  |  |  | 
CC(C)(C)[C@@H](O)[C@@H](Cc1ccc(Cl)cc1)n1cncn1 (racemic) [paclobutrazol, (2RS,3RS)-1-(4-chlorophenyl)-4,4-dimethyl-2-(1H-1,2,4-triazol-1-yl)pentan-3-ol] |  |  |  |  |  |  |  |  |  |  | 0.81 | 3.5 | 14.8 |  |  | 
Cl.NCC(=O)CCC(=O)O [5-aminolevulinic acid hydrochloride] | 0.90 | 4.2 | 12.0 | 34.0 | 17.6 | −8.8 | 54.2 | 0.90 | 4.2 | 12.0 | 0.90 | 4.2 | 12.0 | 0.90 | 4.2 | 12.0
